What was measured:
[1] = biological target: T1, SMARCA2-HiBiT HeLa cells (protein which is expressed from the SMARCA2 gene) (Homo sapiens, UniProt P51531); assay: SMARCA2 degradation assay (HiBiT-fusion HeLa cell line, 24 h, luminescence); assay type: cell-based
T1 construct: protein which is expressed from the SMARCA2 and SMARCA4 genes; host or cells: HeLa (SMARCA2-HiBiT engineered line)
Procedure, shortened: (§1)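 In this 24-hour cellular degradation readout, HiBiT-tagged HeLa lines received compound at up to typically 10 μM down to 300 pM in 10 points. After lysis with LgBiT and substrate, luminescence signals were used to build dose-response curves for DC50.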

[2] = biological target: T2, SMARCA4-HiBiT HeLa cells (protein which is expressed from the SMARCA4 gene) (Homo sapiens, UniProt P51532); assay: SMARCA4 degradation assay (HiBiT-fusion HeLa cell line, 24 h, luminescence); assay type: cell-based
T2 construct: protein which is expressed from the SMARCA2 and SMARCA4 genes; host or cells: HeLa (SMARCA4-HiBiT engineered line)
Procedure, shortened: as §1

T1 sequence (P51531 whole entry, the tested form may be a part): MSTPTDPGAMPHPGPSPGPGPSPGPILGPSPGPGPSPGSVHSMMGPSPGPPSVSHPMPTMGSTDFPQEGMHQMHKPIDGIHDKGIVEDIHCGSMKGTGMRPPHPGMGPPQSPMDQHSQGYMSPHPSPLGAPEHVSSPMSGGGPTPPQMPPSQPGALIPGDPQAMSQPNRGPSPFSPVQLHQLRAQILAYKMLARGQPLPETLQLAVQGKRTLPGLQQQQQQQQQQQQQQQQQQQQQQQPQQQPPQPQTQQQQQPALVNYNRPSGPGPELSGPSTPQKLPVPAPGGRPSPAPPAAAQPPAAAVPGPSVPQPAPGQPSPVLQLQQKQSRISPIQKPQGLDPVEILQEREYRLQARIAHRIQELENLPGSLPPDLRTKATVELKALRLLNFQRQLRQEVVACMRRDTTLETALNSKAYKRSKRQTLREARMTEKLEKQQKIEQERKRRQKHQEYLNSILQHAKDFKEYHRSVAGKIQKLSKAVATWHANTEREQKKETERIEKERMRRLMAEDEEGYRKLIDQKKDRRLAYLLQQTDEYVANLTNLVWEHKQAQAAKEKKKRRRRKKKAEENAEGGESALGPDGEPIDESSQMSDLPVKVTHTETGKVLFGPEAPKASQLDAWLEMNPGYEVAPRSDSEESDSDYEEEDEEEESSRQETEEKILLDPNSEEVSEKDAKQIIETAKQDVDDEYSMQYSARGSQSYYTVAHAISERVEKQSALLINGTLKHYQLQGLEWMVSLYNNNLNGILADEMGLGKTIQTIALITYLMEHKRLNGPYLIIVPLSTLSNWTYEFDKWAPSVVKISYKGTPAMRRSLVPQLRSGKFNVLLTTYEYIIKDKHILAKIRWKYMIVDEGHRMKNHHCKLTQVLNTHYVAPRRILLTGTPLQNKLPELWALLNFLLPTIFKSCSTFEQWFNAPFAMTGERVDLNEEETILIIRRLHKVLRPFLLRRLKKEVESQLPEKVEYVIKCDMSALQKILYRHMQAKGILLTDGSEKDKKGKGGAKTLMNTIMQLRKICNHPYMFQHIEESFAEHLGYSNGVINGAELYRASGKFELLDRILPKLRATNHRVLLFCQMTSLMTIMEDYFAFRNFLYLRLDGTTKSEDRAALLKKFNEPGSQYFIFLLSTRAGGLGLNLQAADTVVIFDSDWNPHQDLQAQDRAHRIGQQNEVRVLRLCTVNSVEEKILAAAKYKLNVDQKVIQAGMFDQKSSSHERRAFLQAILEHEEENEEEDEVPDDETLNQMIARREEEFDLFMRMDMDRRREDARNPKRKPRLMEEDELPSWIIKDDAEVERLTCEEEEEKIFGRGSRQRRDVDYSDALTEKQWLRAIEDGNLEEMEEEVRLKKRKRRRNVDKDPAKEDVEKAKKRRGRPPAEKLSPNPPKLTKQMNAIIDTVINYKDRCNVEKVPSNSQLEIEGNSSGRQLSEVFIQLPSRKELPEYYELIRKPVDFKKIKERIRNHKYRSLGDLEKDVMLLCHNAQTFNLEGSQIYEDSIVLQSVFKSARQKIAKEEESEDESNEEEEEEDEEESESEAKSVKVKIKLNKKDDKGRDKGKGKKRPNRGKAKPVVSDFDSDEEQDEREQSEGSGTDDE
T2 sequence (P51532 whole entry, the tested form may be a part): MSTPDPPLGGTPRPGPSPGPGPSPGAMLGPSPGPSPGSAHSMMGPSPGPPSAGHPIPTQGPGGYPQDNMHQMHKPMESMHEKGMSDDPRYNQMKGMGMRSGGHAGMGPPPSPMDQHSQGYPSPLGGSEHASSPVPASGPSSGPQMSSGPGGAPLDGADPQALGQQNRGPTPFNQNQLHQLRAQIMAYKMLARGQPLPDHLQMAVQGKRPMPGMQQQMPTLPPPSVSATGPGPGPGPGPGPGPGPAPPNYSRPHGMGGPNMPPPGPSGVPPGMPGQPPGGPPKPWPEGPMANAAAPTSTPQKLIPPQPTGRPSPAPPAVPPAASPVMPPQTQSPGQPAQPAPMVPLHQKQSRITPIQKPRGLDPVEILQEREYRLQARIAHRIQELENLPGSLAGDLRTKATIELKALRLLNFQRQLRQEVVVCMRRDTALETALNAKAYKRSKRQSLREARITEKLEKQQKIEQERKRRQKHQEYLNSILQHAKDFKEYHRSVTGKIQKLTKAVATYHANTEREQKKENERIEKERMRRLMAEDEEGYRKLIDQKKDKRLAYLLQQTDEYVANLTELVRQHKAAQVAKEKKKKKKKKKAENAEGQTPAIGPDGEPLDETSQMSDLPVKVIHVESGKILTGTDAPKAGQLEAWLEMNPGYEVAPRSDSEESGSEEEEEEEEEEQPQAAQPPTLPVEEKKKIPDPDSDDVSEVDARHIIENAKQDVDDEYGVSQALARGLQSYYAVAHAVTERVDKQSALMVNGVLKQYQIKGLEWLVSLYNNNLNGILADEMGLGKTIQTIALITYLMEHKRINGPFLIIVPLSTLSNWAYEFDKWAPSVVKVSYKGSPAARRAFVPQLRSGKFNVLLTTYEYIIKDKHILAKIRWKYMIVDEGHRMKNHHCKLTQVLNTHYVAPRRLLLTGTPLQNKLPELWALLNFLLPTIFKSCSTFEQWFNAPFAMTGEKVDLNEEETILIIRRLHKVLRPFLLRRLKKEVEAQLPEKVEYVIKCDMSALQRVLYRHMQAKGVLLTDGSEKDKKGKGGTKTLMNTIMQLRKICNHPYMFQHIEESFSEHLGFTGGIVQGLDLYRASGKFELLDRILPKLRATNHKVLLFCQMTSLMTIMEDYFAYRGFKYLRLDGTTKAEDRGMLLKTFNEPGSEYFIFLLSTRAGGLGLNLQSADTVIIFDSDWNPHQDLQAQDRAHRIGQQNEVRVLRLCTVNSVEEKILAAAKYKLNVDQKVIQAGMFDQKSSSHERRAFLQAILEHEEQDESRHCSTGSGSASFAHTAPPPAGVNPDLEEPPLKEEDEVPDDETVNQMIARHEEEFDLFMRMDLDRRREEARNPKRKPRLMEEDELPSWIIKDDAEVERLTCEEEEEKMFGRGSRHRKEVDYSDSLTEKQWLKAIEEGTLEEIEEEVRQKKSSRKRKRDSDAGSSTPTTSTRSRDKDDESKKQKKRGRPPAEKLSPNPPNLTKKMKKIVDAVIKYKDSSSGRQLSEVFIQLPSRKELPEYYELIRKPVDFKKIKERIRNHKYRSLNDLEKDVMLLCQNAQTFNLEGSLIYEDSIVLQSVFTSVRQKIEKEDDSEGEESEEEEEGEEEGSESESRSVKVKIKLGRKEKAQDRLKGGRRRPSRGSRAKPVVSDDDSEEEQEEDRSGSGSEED

DC50 [1] [nM] | SMARCA2 % Degradation @ 1 μM [1] | DC50 [2] [nM] | inhibition at 1 µM [2] [%] | SMILES
50 to 500 | +++ (+++=>70%) | 50 to 500 | 30 to 70 | Nc1nnc(-c2ccccc2O)cc1N1CCCN(c2ccnc(C#CCN[C@@H]3CCOC3)n2)CC1 [Compound P-273, 0-{5-[4-(2-{3-[(R)-tetrahydro-3-furylamino]-1-propynyl}-4-pyrimidinyl)-1,4-diazepan-1-yl]-6-amino-3-pyridazinyl}phenol]
50 to 500 | +++ (+++=>70%) | 50 to 500 | 30 to 70 | CC[C@@H](C)NCC#Cc1nccc(N2CCCN(c3cc(-c4ccccc4O)nnc3N)CC2)n1 [Compound P-274, 0-{5-[4-(2-{3-[(R)-1-methylpropylamino]-1-propynyl}-4-pyrimidinyl)-1,4-diazepan-1-yl]-6-amino-3-pyridazinyl}phenol]
50 to 500 | +++ (+++=>70%) | 50 to 500 | 30 to 70 | Nc1nnc(-c2ccccc2O)cc1N1CCCN(c2ccnc(C#CCN[C@H]3CCOC3)n2)CC1 [Compound P-275, 0-{5-[4-(2-{3-[(S)-tetrahydro-3-furylamino]-1-propynyl}-4-pyrimidinyl)-1,4-diazepan-1-yl]-6-amino-3-pyridaziny1}phenol]
50 to 500 | ++ (++=30-70%) | 50 to 500 | 30 to 70 | COC[C@H](C)NCC#Cc1nccc(N2CCCN(c3cc(-c4ccccc4O)nnc3N)CC2)n1 [Compound P-276, 0-{5-[4-(2-{3-[(S)-2-methoxy-1-methylethylamino]-1-propynyl}-4-pyrimidinyl)-1,4-diazepan-1-yl]-6-amino-3-pyridazinyl}phenol]
50 to 500 | ++ (++=30-70%) | 50 to 500 | 30 to 70 | COC[C@@H](C)NCC#Cc1nccc(N2CCCN(c3cc(-c4ccccc4O)nnc3N)CC2)n1 [Compound P-277, 0-{5-[4-(2-{3-[(R)-2-methoxy-1-methylethylamino]-1-propynyl}-4-pyrimidinyl)-1,4-diazepan-1-yl]-6-amino-3-pyridazinyl}phenol]
50 to 500 | ++ (++=30-70%) | 50 to 500 | 30 to 70 | CC1(NCC#Cc2nccc(N3CCCN(c4cc(-c5ccccc5O)nnc4N)CC3)n2)COC1 [Compound P-278, 0-[6-amino-5-(4-{2-[3-(3-methyl-3-oxetanylamino)-1-propynyl]-4-pyrimidinyl}-1,4-diazepan-1-yl)-3-pyridazinyl]phenol]
50 to 500 | +++ (+++=>70%) | 50 to 500 | 30 to 70 | C[C@H]1CCN1CC#Cc1nccc(N2CCCN(c3cc(-c4ccccc4O)nnc3N)CC2)n1 [Compound P-279, 0-{5-[4-(2-{3-[(S)-2-methyl-1-azetidinyl]-1-propynyl}-4-pyrimidinyl)-1,4-diazepan-1-y1]-6-amino-3-pyridazinyl}phenol]
< 50 | ++ (++=30-70%) | < 50 | < 30 | Nc1nnc(-c2ccccc2O)cc1N1CCN(c2ccnc(C#CCN3CCCCC3)n2)CC1 [Compound P-280, 0-(6-amino-5-{4-[2-(3-piperidino-1-propynyl)-4-pyrimidinyl]-1-piperazinyl}-3-pyridazinyl)phenol]
< 50 | ++ (++=30-70%) | < 50 | 30 to 70 | Cc1nn2ccn(CC#Cc3nccc(N4CCN(c5cc(-c6ccccc6O)nnc5N)CC4)n3)c(=O)c2c1C [Compound P-281, 5-[3-(4-{4-[3-amino-6-(o-hydroxyphenyl)-4-pyridazinyl]-1-piperazinyl}-2-pyrimidinyl)-2-propynyl]-2,3-dimethyl-1,5,7a-triaza-4(5H)-indenone]
50 to 500 | ++ (++=30-70%) | 50 to 500 | 30 to 70 | Cc1nn2ccn(CC#Cc3nccc(N4C[C@H]5C[C@@H]4CN5c4cc(-c5ccccc5O)nnc4N)n3)c(=O)c2c1C [Compound P-286, 5-[3-(4-{(1R,4R)-5-[3-amino-6-(0-hydroxyphenyl)-4-pyridazinyl]-2,5-diazabicyclo[2.2.1]hept-2-y1}-2-pyrimidinyl)-2-propynyl]-2,3-dimethyl-1,5,7a-triaza-4(5H)-indenone]
50 to 500 | ++ (++=30-70%) | < 50 | < 30 | C[C@H]1CN(c2ccnc(C#CCn3ccnc3)n2)CCN1c1cc(-c2ccccc2O)nnc1N [Compound P-293, 0-{5-[(S)-4-{2-[3-(1-imidazolyl)-1-propynyl]-4-pyrimidinyl}-2-methyl-1-piperaziny1]-6-amino-3-pyridazinyl}phenol]
< 50 | ++ (++=30-70%) | < 50 | < 30 | CNCC#Cc1nccc(N2CCN(c3cc(-c4ccccc4O)nnc3N)CC2)n1 [Compound P-294, 0-[6-amino-5-(4-{2-[3-(methylamino)-1-propynyl]-4-pyrimidinyl}-1-piperazinyl)-3-pyridazinyl]phenol]

Second part, the compound before the results:

SMILES | DC50 [1] [nM] | SMARCA2 % Degradation @ 1 μM [1] | DC50 [2] [nM] | inhibition at 1 µM [2] [%]
C[C@@H]1CCN(c2cc(-c3ccccc3O)nnc2N)CCN1c1ccnc(C#CCN2CC(F)(F)[C@H]2C)n1 [Compound P-271, 0-{5-[(R)-4-(2-{3-[(R)-3,3-difluoro-2-methyl-1-azetidinyl]-1-propynyl}-4-pyrimidinyl)-5-methyl-1,4-diazepan-1-yl]-6-amino-3-pyridazinyl}phenol] | 50 to 500 | ++ (++=30-70%) | 50 to 500 | < 30
Cc1nn2ccn(CC#Cc3nccc(N4CC5CCC(C4)N5c4cc(-c5ccccc5O)nnc4N)n3)c(=O)c2c1C [Compound P-282, 5-[3-(4-{8-[3-amino-6-(o-hydroxyphenyl)-4-pyridaziny1]-3,8-diazabicyclo[3.2.1]oct-3-yl}-2-pyrimidinyl)-2-propynyl]-2,3-dimethyl-1,5,7a-triaza-4(5H)-indenone] | 50 to 500 | ++ (++=30-70%) | 50 to 500 | 30 to 70
Nc1nnc(-c2ccccc2O)cc1N1C2CCC1CN(c1ccnc(C#CCn3cncn3)n1)C2 [Compound P-283, 0-[6-amino-5-(3-{2-[3-(1H-1,2,4-triazol-1-yl)-1-propynyl]-4-pyrimidinyl}-3,8-diazabicyclo[3.2.1]oct-8-yl)-3-pyridazinyl]phenol] | 50 to 500 | ++ (++=30-70%) | 50 to 500 | < 30
Nc1nnc(-c2ccccc2O)cc1N1C2CCC1CN(c1ccnc(C#CCn3ccnc3)n1)C2 [Compound P-284, 0-[6-amino-5-(3-{2-[3-(1-imidazolyl)-1-propynyl]-4-pyrimidinyl}-3,8-diazabicyclo[3.2.1]oct-8-yl)-3-pyridazinyl]phenol] | 50 to 500 | ++ (++=30-70%) | 500 to 5000 | < 30
Nc1nnc(-c2ccccc2O)cc1N1C[C@H]2C[C@@H]1CN2c1ccnc(C#CCN2CCCCC2)n1 [Compound P-285, 0-(5-{(1R,4R)-5-[2-(3-piperidino-1-propynyl)-4-pyrimidinyl]-2,5-diazabicyclo[2.2.1]hept-2-y1}-6-amino-3-pyridazinyl)phenol] | < 50 | ++ (++=30-70%) | < 50 | < 30
Cn1ccc(NCC#Cc2nccc(N3C4CCC3CN(c3cc(-c5ccccc5O)nnc3N)C4)n2)n1 [Compound P-287] | 50 to 500 | ++ (++=30-70%) | 50 to 500 | 30 to 70
Nc1nnc(-c2ccccc2O)cc1N1CC2CCC(C1)N2c1ccnc(C#CCN2CCCCC2)n1 [Compound P-288, 0-(6-amino-5-{8-[2-(3-piperidino-1-propynyl)-4-pyrimidinyl]-3,8-diazabicyclo[3.2.1]oct-3-y1}-3-pyridazinyl)phenol] | 50 to 500 | ++ (++=30-70%) | 50 to 500 | 30 to 70
Nc1nnc(-c2ccccc2O)cc1N1CC2CCC(C1)N2c1ccnc(C#CCn2cncn2)n1 [Compound P-289, 0-[6-amino-5-(8-{2-[3-(1H-1,2,4-triazol-1-yl)-1-propynyl]-4-pyrimidinyl}-3,8-diazabicyclo[3.2.1]oct-3-yl)-3-pyridazinyl]phenol] | 50 to 500 | ++ (++=30-70%) | 50 to 500 | 30 to 70
Nc1nnc(-c2ccccc2O)cc1N1CC2CCC(C1)N2c1ccnc(C#CCn2ccnc2)n1 [Compound P-290] | 50 to 500 | ++ (++=30-70%) | 50 to 500 | < 30
CNCC#Cc1nccc(N2C3CCC2CN(c2cc(-c4ccccc4O)nnc2N)C3)n1 [Compound P-291, 0-[6-amino-5-(8-{2-[3-(methylamino)-1-propynyl]-4-pyrimidinyl}-3,8-diazabicyclo[3.2.1]oct-3-yl)-3-pyridazinyl]phenol] | 50 to 500 | ++ (++=30-70%) | 50 to 500 | < 30
CNCC#Cc1nccc(N2CCN(c3cc(-c4ccccc4O)nnc3N)[C@@H](C)C2)n1 [Compound P-292, 0-{5-[(S)-2-methyl-4-{2-[3-(methylamino)-1-propynyl]-4-pyrimidinyl}-1-pipcrazinyl]-6-amino-3-pyridaziny1} phenol] | 50 to 500 | ++ (++=30-70%) | < 50 | < 30

— patent US20260265238A1, “COMPOUNDS AND PHARMACEUTICAL COMPOSITIONS THAT DEGRADE SWI/SNF-RELATED MATRIX-ASSOCIATED ACTIN-DEPENDENT REGULATOR OF CHROMATIN SUBFAMILY A” (Plexium, Inc., priority 2023, published 2026)
